Measurements from patent US7300645B2, “Oral composition comprising isomalt and remineralizing enhancing agent” (Sunstar Kabushiki Kaisha, priority 1998, dated 2007).

Experiment: Remineralizing ability 1: bovine enamel block with artificial caries immersed in sugar test solution
Conditions: sugar 20% in 3.0 mM calcium ion / 1.8 mM phosphate ion, immersed ten days
Procedure: The remineralization effect of the sugars was evaluated in an in vitro test using a bovine tooth according to the procedures described in D. J. White et al., Caries Res., 21, 228 (1987).
1. An enamel section having 4 mm length×3 mm width was obtained from the bovine tooth. The section was embedded in a dental resin to obtain an enamel block.
2. An enamel varnish was applied to a portion of approximately ⅓ of the surface of the enamel block in order not to cause the demineralization of that portion. Then, the enamel block was demineralized with a demineralizing solution containing 50% of saturated hydroxyapatite/0.1M lactic acid/pH 5.0 to prepare an artificial caries.
3. An enamel varnish was applied to a portion of approximately ⅔ of the surface of the treated enamel block in order not to cause the remineralization of that portion. The enamel block was immersed for ten days in a test solution prepared by adding the test sugar into an aqueous solution containing 3.0 mM calcium ion and 1.8 mM phosphate ion so that the concentration of the sugar became 20%, to perform the remineralization treatment.
4. Three thin sections having approximately 500 μm in thickness were prepared from the enamel block. The central portion of the thin sections was ground so that the thickness became approximately 100 μm using a double-side polishing machine.
5. The X-ray photograph was taken of the thin section prepared in the fourth step. The mineral amounts of the demineralized portion and the remineralized portion were calculated based on the brightness of the each portion and a distance from the surface using an image processor. The mineral amount difference between the demineralized and remineralized portions was expressed as a remineralization value. […] A control test was performed in a similar manner to that described above, except that the test solution containing only 3.0 mM calcium ion and 1.8 mM phosphate ion but not containing the sugar was used.
Further, a similar test was performed in which sodium fluoride was added to the test solution to 2 ppm in terms of fluoride ion.

[1] = sodium fluoride added to 2 ppm fluoride ion

Compound | Remineralization value [1] | Remineralization value (system not containing fluoride)
OC[C@@H](O)[C@@H](O)[C@H](O)[C@@H](O)CO [Sorbitol] | 1358 Vol. % μm | 645 Vol. % μm
OC[C@@H](O)[C@H](O)[C@@H](O)CO [Xylitol] | 1636 Vol. % μm | 416 Vol. % μm
α-D-glucopyranosyl-1,6-mannitol, its isomer, α-D-glucopyranosyl-1,6-sorbitol or a mixture thereof [Palatinit] | 2374 Vol. % μm | 1057 Vol. % μm
OC[C@H]1O[C@H](O[C@H]2O[C@H](CO)[C@@H](O)[C@H](O)[C@H]2O)[C@H](O)[C@@H](O)[C@@H]1O [Trehalose] | 1205 Vol. % μm | 715 Vol. % μm
OC[C@@H](O)[C@@H](O)CO [Erythritol] | 1330 Vol. % μm | 602 Vol. % μm
OC[C@@H](O)[C@@H](O)[C@H](O)[C@H](O)CO [Mannitol] | 1377 Vol. % μm | 640 Vol. % μm
